Publication PMC3706879, “The neurotrophic compound J147 reverses cognitive impairment in aged Alzheimer's disease mice” (Alzheimer's Research & Therapy, 2013)

What was measured:
[1] = body weights and food consumption of aged APPswe/PS1ΔE9 mice; type: in vivo; conditions: 20-month-old APPswe/PS1ΔE9 mice, 200 ppm (10 mg/kg/day) in food, three months, measured weekly
Method: (§1) The APPswe/PS1ΔE9 transgenic mice have been previously characterized. The line 85 mice carry two transgenes, the mouse/human chimeric APP/Swe, linked to Swedish FAD and human PS1ΔE9. At 20 months of age both male and female transgenic mice were fed a high fat diet (Harlan Tekland, Madison, WI, USA) with and without J147 (200 ppm, 10 mg/kg/day). Treatment continued for three months and was followed by behavior testing and sacrifice of mice for tissue harvesting. […] (Data not shown).

huAPP/PS1 mice = test: elevated plus maze in aged huAPP/PS1 mice; type: in vivo; conditions: 200 ppm in food for three months
Method: as §1
The elevated plus maze analyzes the anxiety response of mice. This test relies upon the tendency of mice to have a fear of heights and to navigate towards dark enclosed spaces and remain there. Our maze is made of gray plastic and consists of four arms (two open without walls and two enclosed by 15.25 cm high walls) 30 cm long and 5 cm wide in the shape of a plus sign. The elevated plus maze is placed close to the center of the room, and has similar levels of illumination on both open and closed arms. A video-tracking system (Noldus EthoVision) is used to automatically collect behavioral data. […] Mice were then tested in the maze for a five-minute period while the software tracked and recorded the behavior of the mice. The anxiety of mice was measured by comparing the time spent in the open arms to time spent in the closed arms. […]

Aβ1-40 and Aβ1-42 = test: Aβ ELISA of hippocampus of aged huAPP/PS1 mice; type: in vivo; conditions: three months J147
Method: as §1
(§2) Hippocampal and entorhinal cortex tissue samples were homogenized in 10 volumes of RIPA lysis buffer (50 mM Tris, pH 7.5, 150 mM NaCl, 0.1% sodium dodecyl sulfate and 0.5% deoxycholate, and 1% NP40) containing a cocktail of protease and phosphatase inhibitors ([…] each of pepstatin A, aprotinin, phosphoramidon, and leupeptin; 0.5 mM 4-(2-aminoethyl) benzenesulfonyl fluoride hydrochloride; 1 mM EGTA; 5 mM fenvalerate; and 5 mM cantharidin). Samples were sonicated (2 × 10 s) and centrifuged at 100,000 × g for 60 minutes at 4°C. Protein concentrations in the cell extracts were determined using the BCA protein assay (Pierce supplied by Thermo Fisher Scientific, Rockford, IL, USA). Equal amounts of protein were solubilized in 2.5x SDS-sample buffer, separated on 12% SDS-polyacrylamide gels, transferred to Immobulin P and immunoblotted with the antibodies indicated in the Materials section. For Western blots, protein levels were normalized to actin levels. An unpaired t test was performed to compare between two groups at a single time point. When comparing multiple groups, one-way ANOVA followed by a Tukey's post hoc test was used. All statistical analysis was conducted using GraphPad Instat software.
Aβ 1 to 40 and 1 to 42 levels in hippocampal lysate were analyzed using the Aβ1-40 and Aβ1-42 ELISA kits from Invitrogen (# KHB3481 and # KHB3442, respectively). All kit reagents were brought to room temperature before use. Standards were prepared according to the manufacturer's guidelines and samples were diluted as follows; RIPA fractions were diluted 1:10 for both Aβ1-40 and Aβ1-42; and RIPA insoluble fractions were diluted 1:2,000 for Aβ1-40 and 1:5,000 for Aβ1-42. A total of 50 μl of Aβ peptide standards and samples were added in duplicate to 96-well plates pre-coated with mAb to the NH2 terminus region of Aβ. Plates were incubated at 4°C overnight and then 50 μl of Hu Aβ40 or Aβ42 detection antibody was added to each well except the chromogen blanks. […] Stop solution was then added at 100 μl to each well followed by reading the absorbance of each well at 450 nm. […] The concentrations of the samples were calculated from the standard curve and multiplied by the dilution factor.

[2] = tested on: BACE, APP, NGF, BDNF, Homer-1, Egr3, phosphorylated CREB; test: Western blotting of hippocampal or entorhinal cortex tissue of aged huAPP/PS1 mice; type: in vivo
Method: as §1, §2

PC12 cells = test: neurite outgrowth of PC12 cells with HT22 growth conditioned medium; type: cell-based
Method: The HT22 cell line was used to make growth conditioned medium. HT22 is a nerve cell line derived from mouse brain and is widely used to study nerve cell physiology. To make HT22 growth conditioned medium, cells were grown in DMEM with 10% fetal calf serum. Then, semiconfluent cultures were washed three times with serum-free DMEM and cultured overnight in a reduced volume of DMEM in the presence or absence of 100 nM J147. The following day, the growth conditioned medium was collected and centrifuged at 10,000 × g to remove detached cells. To determine the effect of the conditioned medium on NGF-induced neurite outgrowth, PC12 cells were dissociated and plated on polyornithine-coated tissue culture dishes in the following conditions: 1) HT22 conditioned medium, 2) J147 treated HT22 conditioned medium, 3) DMEM alone plus J147, 4) DMEM plus NGF at 50 nanograms per ml, 5) J147 treated HT22 conditioned medium pre-incubated for one hour with 10 μg/ml anti-NGF and N2 supplement (Invitrogen). N2 supplement, which contains transferrin, was used in the presence of antibody to minimize the possibility that antibody protein non-specifically modified cell-substrate from adhesion and therefore neurite outgrowth. Phase contrast photographs were taken 24 hrs later.

MDRI-MDCK = conditions: MDCK-MDR1
normal rodents = tested on: normal rodents; set-up: method as in PMID 22194796; conditions: cited from earlier work
[3] = hippocampus, vs control huAPP/PS1 mice

For COc1cccc(/C=N/N(C(=O)C(F)(F)F)c2ccc(C)cc2C)c1 [J147, (E)-N-(2,4-dimethylphenyl)-2,2,2-trifluoro-N'-(3methoxybenzyli-dene) acetohydrazide], which “mouse body weights and food consumption” value [1] is on record?
The value was “no significant differences between the groups”.

What about the “disinhibition phenotype (time in the open arm)” value (huAPP/PS1 mice) of the same molecule?
Its value is “completely rescued”.

What about the “Aβ1-40 levels, RIPA insoluble fraction” value (Aβ1-40 and Aβ1-42) of the same molecule?
Its value is “reduced”.

And the “Aβ1-42 levels, RIPA insoluble fraction” value (Aβ1-40 and Aβ1-42)?
Its value is “not altered”.

What about the “RIPA soluble Aβ1-40” value (Aβ1-40 and Aβ1-42) of the same molecule?
The value was “decreased”.

And the “RIPA soluble Aβ1-42” value (Aβ1-40 and Aβ1-42)?
Its value is “decreased”.

And the “protein level of β-secretase (BACE)” value ([2]; RIPA soluble fraction, hippocampus, vs untreated AD mice)?
The value was “significantly reduced”.

And the “phosphorylated CREB” value ([2]; entorhinal cortex)?
The value was “significantly increased”.

What about the “mature BDNF protein level” value ([2]; hippocampus) of the same molecule?
The value was “increase”.

And the proBDNF protein level ([2]; hippocampus)?
Its proBDNF protein level is “increase”.

What about the “ratio of pro- to mature BDNF” value ([2]; hippocampus) of the same molecule?
Its value is “decreased”.

What about the “ratio of proNGF to mature NGF” value ([2]; hippocampus) of the same molecule?
The value was “decreased significantly”.

What about the Egr3 level ([2]; hippocampus, aged AD mice) of the same molecule?
The Egr3 level was “significantly increased”.

And the Homer-1 levels ([2]; hippocampus, aged AD mice)?
Its Homer-1 levels is “significantly increased”.

And the “mature NGF level” value [2, 3]?
The value was “increases”.

What about the proNGF level [2, 3] of the same molecule?
Its proNGF level is “increases”.

What about the APP protein levels ([2]; soluble fractions of hippocampus, vs control AD mice) of the same molecule?
The APP protein levels was “significantly increased”.

And the “neurite outgrowth, fresh DMEM plus J147” value (PC12 cells; 100 nM J147 in fresh DMEM)?
The value was “did not”.

And the “neurite outgrowth, conditioned medium from J147 treated HT22 cells” value (PC12 cells; HT22 cells incubated overnight with 100 nM J147, 24 hrs)?
Its value is “promoted neurite outgrowth”.

And the “MDRI-MDCK brain transport rates classification (BBB penetration)” value (MDRI-MDCK)?
The value was “High”.

And the “memory in normal rodents” value (normal rodents)?
The value was “facilitates memory in normal rodents”.
